From ChEMBL document CHEMBL4052585 (J Med Chem, 2017)
Converted amounts (≈) assume the structure as drawn.

Assays:
[1] = biological target: T1, Mitogen-activated protein kinase kinase kinase 14 (Homo sapiens, UniProt Q99558); test: Binding affinity to NIK (unknown origin) by SPR method
[2] = biological target: PI3-kinase p110-delta/p85-alpha (Homo sapiens, UniProt O00329); test: Inhibition of N-terminal His6-tagged recombinant full-length human p110delta/untagged recombinant full length human p85alpha expressed in baculovirus infected Sf21 insect cells using PIP2:3PS lipid substrate after 120 mins by ADP-Glo assay
PI3-kinase p110-delta/p85-alpha, sequence (P27986 whole entry): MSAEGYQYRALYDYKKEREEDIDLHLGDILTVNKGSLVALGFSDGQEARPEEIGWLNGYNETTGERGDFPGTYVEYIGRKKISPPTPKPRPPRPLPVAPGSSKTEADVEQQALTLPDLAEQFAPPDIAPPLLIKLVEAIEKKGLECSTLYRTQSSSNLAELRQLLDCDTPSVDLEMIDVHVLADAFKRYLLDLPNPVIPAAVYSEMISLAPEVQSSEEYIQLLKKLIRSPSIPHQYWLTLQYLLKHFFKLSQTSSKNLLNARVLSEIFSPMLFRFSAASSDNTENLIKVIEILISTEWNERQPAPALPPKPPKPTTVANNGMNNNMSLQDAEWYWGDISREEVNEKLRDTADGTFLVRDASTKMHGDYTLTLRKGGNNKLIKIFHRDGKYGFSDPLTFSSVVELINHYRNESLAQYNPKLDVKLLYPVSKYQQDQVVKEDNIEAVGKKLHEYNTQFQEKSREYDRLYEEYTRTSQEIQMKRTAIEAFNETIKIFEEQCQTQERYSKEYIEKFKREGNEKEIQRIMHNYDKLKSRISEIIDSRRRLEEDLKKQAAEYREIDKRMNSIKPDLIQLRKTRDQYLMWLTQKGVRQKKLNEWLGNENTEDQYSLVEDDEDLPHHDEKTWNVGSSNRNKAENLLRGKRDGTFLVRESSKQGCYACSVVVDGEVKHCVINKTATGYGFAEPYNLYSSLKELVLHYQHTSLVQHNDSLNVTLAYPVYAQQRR
PI3-kinase p110-delta/p85-alpha, sequence (O00329 whole entry): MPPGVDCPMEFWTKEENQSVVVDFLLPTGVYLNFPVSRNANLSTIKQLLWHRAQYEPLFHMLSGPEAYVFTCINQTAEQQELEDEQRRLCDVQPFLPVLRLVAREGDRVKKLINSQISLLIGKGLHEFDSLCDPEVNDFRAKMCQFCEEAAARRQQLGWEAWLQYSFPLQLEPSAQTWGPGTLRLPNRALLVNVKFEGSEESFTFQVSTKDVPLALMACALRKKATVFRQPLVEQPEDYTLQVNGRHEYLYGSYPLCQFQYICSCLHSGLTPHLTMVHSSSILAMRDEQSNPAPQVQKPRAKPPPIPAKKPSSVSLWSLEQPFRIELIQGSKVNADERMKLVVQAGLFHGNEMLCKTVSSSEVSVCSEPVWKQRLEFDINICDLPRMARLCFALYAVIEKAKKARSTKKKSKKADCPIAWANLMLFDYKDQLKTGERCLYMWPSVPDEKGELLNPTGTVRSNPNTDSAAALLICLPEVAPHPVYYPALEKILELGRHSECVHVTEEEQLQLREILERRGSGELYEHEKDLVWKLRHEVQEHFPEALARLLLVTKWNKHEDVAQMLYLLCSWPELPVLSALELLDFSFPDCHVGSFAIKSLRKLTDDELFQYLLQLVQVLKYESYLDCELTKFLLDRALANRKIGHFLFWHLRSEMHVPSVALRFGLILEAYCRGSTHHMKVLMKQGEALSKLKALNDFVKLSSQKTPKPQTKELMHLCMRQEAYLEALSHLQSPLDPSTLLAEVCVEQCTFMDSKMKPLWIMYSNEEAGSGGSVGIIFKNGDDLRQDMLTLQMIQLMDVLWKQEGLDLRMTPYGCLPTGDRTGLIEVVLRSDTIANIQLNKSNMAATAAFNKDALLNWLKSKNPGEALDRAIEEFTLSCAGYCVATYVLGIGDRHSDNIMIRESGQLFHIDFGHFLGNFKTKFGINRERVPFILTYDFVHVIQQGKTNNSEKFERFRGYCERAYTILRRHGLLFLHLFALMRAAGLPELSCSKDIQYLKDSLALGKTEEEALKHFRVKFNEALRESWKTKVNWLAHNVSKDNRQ

physchem = details: buffer, pH 7.4
[3] = biological target: T1, Mitogen-activated protein kinase kinase kinase 14; test: Inhibition of NIK (unknown origin) after 1 to 2 hrs by ADP-FP assay
[4] = Volume of distribution in beagle dog; type: ADME, Canis lupus familiaris; details: in vivo
[5] = Volume of distribution in cynomolgus monkey; type: ADME, Macaca fascicularis; details: in vivo
[6] = Oral bioavailability in Sprague-Dawley rat at 5 mg/kg; type: ADME, organism-based; details: in vivo
[7] = Apparent permeability across MDCK cells at 100 uM; type: ADME, cell-based, Canis lupus familiaris; details: dog
[8] = Plasma clearance in cynomolgus monkey; type: ADME, Macaca fascicularis
[9] = Plasma clearance in Sprague-Dawley rat; type: ADME
[10] = Volume of distribution in Sprague-Dawley rat; type: ADME; details: in vivo
[11] = biological target: T1, Mitogen-activated protein kinase kinase kinase 14; test: Inhibition of NIK in human HeLa cells assessed as decrease in antilymphotoxin-beta receptor antibody-stimulated p52 translocation from cytoplasm to nucleus after 5 hrs; type: cell-based
[12] = Thermodynamic solubility of compound at pH 7.4; type: physicochemical; details: buffer, read-out: Therm_solubility
[13] = Plasma clearance in beagle dog; type: ADME, Canis lupus familiaris
[14] = biological target: T1, Mitogen-activated protein kinase kinase kinase 14; test: Inhibition of NIK (unknown origin) expressed in HEK293 cells assessed as decrease in NFkappaB signal after 24 hrs by dual glo luciferase reporter gene assay; type: cell-based
[15] = Oral bioavailability in beagle dog at 5 mg/kg; type: ADME, organism-based, Canis lupus familiaris; details: in vivo
HEK293 = test: Cytotoxicity against HEK293 cells assessed as effect on cell viability after 24 hrs by HSV-TK reporter assay; type: cell-based; details: Homo sapiens, HEK293, 24 h
[16] = Protein binding in human plasma; type: ADME, cell-free; details: read-out: PPB (converted)

T1 sequence (Q99558 whole entry): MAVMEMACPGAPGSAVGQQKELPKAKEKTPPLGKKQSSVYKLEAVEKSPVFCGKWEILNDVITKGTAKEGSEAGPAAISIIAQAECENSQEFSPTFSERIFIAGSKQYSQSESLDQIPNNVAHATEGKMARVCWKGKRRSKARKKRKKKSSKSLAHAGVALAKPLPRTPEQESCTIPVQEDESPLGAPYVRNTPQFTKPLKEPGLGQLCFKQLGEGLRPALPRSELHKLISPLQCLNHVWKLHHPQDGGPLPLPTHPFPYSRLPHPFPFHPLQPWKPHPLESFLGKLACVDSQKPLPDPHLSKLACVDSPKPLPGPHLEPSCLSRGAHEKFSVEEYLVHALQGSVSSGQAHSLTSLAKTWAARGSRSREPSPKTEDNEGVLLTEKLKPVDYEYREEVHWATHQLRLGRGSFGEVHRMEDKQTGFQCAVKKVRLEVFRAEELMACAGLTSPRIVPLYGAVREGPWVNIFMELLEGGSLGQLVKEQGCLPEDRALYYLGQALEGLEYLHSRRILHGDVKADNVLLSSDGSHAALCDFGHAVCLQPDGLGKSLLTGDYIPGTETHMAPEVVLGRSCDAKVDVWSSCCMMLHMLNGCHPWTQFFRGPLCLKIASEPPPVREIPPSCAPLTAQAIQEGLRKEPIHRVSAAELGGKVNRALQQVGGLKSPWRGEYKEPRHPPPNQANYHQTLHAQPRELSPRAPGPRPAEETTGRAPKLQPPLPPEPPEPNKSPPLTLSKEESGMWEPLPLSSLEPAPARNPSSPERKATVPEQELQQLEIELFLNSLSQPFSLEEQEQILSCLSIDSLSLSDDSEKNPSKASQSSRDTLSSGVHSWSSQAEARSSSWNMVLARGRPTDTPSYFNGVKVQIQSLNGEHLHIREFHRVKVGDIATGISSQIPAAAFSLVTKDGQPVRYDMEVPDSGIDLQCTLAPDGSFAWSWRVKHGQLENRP

Structure (SMILES): NC(=O)c1cccn1Cc1ccccc1Cl
- Kd [1]: 69000 nM

Structure (SMILES): CC(C)(O)C#Cc1ccc2c(c1)-c1nc(C(N)=O)cn1CCO2
- Ki [2]: 320 nM
- logD (physchem): 1.4
- Ki [3]: 310 nM

Structure (SMILES): CC(C)(O)C#Cc1ccc2c(c1)-c1nc(C(N)=O)sc1CCO2
- Ki [2]: 216 nM
- logD (physchem): 2.4
- Ki [3]: 28 nM

Structure (SMILES): CC(C)(O)C#Cc1cc2c(cc1F)OCCn1cc(C(N)=O)nc1-2
- logD (physchem): 1.7
- Ki [3]: 36 nM

Structure (SMILES): NC(=O)c1cn2c(n1)-c1cc(C#CC3(O)CCC3)c(F)cc1OCC2
- logD (physchem): 3.4
- Ki [3]: 20.2 nM

Structure (SMILES): CC(C)(O)C#Cc1cc2c(cc1F)OCCn1c-2nc(C(N)=O)c1Cc1ccccc1F
- Ki [2]: > 1000 nM
- logD (physchem): 3.4
- Ki [3]: 7.5 nM

Structure (SMILES): CC(C)(O)C#Cc1ccc2c(c1)-c1nc(C(N)=O)sc1C(F)(F)CO2
- Ki [2]: > 1000 nM
- Ki [3]: 40 nM

Structure (SMILES): CC(C)(O)C#Cc1cc2c(cc1F)OCCn1c-2nc(C(N)=O)c1C#N
- Ki [2]: > 1000 nM
- logD (physchem): 1.6
- Ki [3]: 201 nM

Structure (SMILES): Cc1c(C(N)=O)nc2n1CCOc1cc(F)c(C#CC(C)(C)O)cc1-2
- Ki [2]: > 1000 nM
- logD (physchem): 2.2
- Ki [3]: 35.5 nM

Structure (SMILES): CC(C)(O)C#Cc1cc2c(cc1F)OCCn1c-2nc(C(N)=O)c1C1CC1
- Ki [2]: > 1000 nM
- logD (physchem): 1.9
- Ki [3]: 41 nM

Structure (SMILES): CNC(=O)c1c(C(N)=O)nc2n1CCOc1cc(F)c(C#CC(C)(C)O)cc1-2
- Ki [2]: > 1000 nM
- logD (physchem): 2.5
- Ki [3]: 2 nM

Structure (SMILES): CC(C)(O)C#Cc1cc2c(cc1F)OCCn1c-2nc(C(N)=O)c1-c1cn[nH]c1
- Ki [2]: > 1000 nM
- logD (physchem): 1.8
- Ki [3]: 7 nM

Structure (SMILES): CN(C)C(=O)c1c(C(N)=O)nc2n1CCOc1cc(F)c(C#CC(C)(C)O)cc1-2
- Ki [2]: > 1000 nM
- logD (physchem): 1.4

Structure (SMILES): CN(C)C(=O)C(C)(O)C#Cc1cc2c(cc1F)OCCn1cc(C(N)=O)nc1-2 (centres undefined)
- logD (physchem): 1.4
- Ki [3]: 986 nM

Structure (SMILES): NC(=O)c1cn2c(n1)-c1cc(C#CC3(O)COC3)c(F)cc1OCC2
- logD (physchem): 1.2
- Ki [3]: 4280 nM

Structure (SMILES): CNC(=O)c1c(C(N)=O)nc2n1CCOc1ccc(C#C[C@@](C)(O)c3cc(C)on3)cc1-2
- Vd [4]: 1.1 L/kg
- Vd [5]: 0.9 L/kg
- Ki [2]: > 1000 nM
- bioavailability [6]: 51%
- Papp at 100 µM [7]: 7.5 ×10⁻⁶ cm/s
- clearance [8]: 21 mL/min/kg
- clearance [9]: 7 mL/min/kg
- Vd [10]: 1.4 L/kg
- IC50 [11]: 67 to 87 nM
- solubility thermodynamic [12]: 9 µg/mL (≈ 20.7 µM)
- logD (physchem): 3
- clearance [13]: 7 mL/min/kg
- IC50 [14]: 40 nM
- Ki [3]: 0.47 nM
- bioavailability [15]: 140%
- IC50 (HEK293): 13000 nM
- fraction unbound [16]: 0.06

Structure (SMILES): CC(C)(O)C#Cc1ccc2c(c1)-c1nc(C(N)=O)cn1C1CC2C1
- Ki [2]: > 1000 nM
- Ki [3]: 20 nM

Structure (SMILES): C[C@H]1Cn2cc(C(N)=O)nc2-c2cc(C#CC(C)(C)O)ccc2O1
- Ki [2]: > 1000 nM

Structure (SMILES): C[C@@H]1Cn2cc(C(N)=O)nc2-c2cc(C#CC(C)(C)O)ccc2O1
- Ki [2]: > 1000 nM

Structure (SMILES): CN1CC[C@@](O)(C#Cc2cc3c(cc2F)OCCn2cc(C(N)=O)nc2-3)C1=O
- logD (physchem): 0.74

Structure (SMILES): CN1CC[C@](O)(C#Cc2cc3c(cc2F)OCCn2cc(C(N)=O)nc2-3)C1=O
- logD (physchem): 0.94

Structure (SMILES): Cn1nccc1Cc1c(C(N)=O)nc2n1CCOc1cc(F)c(C#CC(C)(C)O)cc1-2
- Ki [2]: > 1000 nM
- Ki [3]: 9.9 nM

Structure (SMILES): CC(C)(O)C#Cc1cc2c(cc1F)C1CC(C1)n1cc(C(N)=O)nc1-2
- Ki [2]: > 1000 nM
- Ki [3]: 2.9 nM

Structure (SMILES): Cc1cc([C@](C)(O)C#Cc2cc3c(cc2F)C2CC(C2)n2cc(C(N)=O)nc2-3)no1
- Vd [5]: 1.9 L/kg
- Ki [2]: > 1000 nM
- bioavailability [6]: 27%
- Papp at 100 µM [7]: 10.1 ×10⁻⁶ cm/s
- clearance [8]: 13 mL/min/kg
- clearance [9]: 24 mL/min/kg
- Vd [10]: 0.84 L/kg
- IC50 [11]: 199 nM
- solubility thermodynamic [12]: 32 µg/mL (≈ 78.7 µM)
- logD (physchem): 3.3
- IC50 [14]: 102 nM
- Ki [3]: 0.4 nM
- IC50 (HEK293): > 20000 nM
- fraction unbound [16]: 0.09

Structure (SMILES): NC(=O)c1ccc2c(n1)-c1sccc1CCO2
- logD (physchem): 2.5
- Ki [3]: 1280 nM

Structure (SMILES): Cc1cc([C@](C)(O)C#Cc2cc3c(cc2F)OCCn2cc(C(N)=O)nc2-3)no1
- Ki [2]: 47 nM
- IC50 [11]: 607 nM
- logD (physchem): 1.1
- IC50 [14]: 156 nM
- IC50 (HEK293): > 20000 nM

Structure (SMILES): CC(C)(O)C#Cc1ccc2c(c1)-c1nc(C(N)=O)sc1C(O)CO2 (racemic)
- Ki [2]: > 1000 nM
- Ki [3]: 101 nM

Structure (SMILES): CC(O)(C#Cc1cc2c(cc1F)OCCn1cc(C(N)=O)nc1-2)CF (racemic)
- Ki [3]: 8.7 nM

Structure (SMILES): CC(O)(C#Cc1cc2c(cc1F)OCCn1cc(C(N)=O)nc1-2)c1cccnn1 (racemic)
- logD (physchem): 1.4
- Ki [3]: 3.2 nM

Structure (SMILES): CN1CCCC(O)(C#Cc2cc3c(cc2F)OCCn2cc(C(N)=O)nc2-3)C1=O (racemic)
- logD (physchem): 1.5
- Ki [3]: 3 nM

Structure (SMILES): CC(O)(C#Cc1cc2c(cc1F)OCCn1cc(C(N)=O)nc1-2)c1nccs1 (racemic)
- logD (physchem): 2.4
- Ki [3]: 1.5 nM
